Measurements published in PubChem BioAssay (NCI).
Several values for one entry are separate records, joined by “and”; a condition that tells them apart may be missing. Equal entries are not always repeated.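 Grown in 96-well plates, cells were treated for 48 hours with each compound at five concentrations. Insufficient inhibition: endpoint recorded as highest concentration tested. At the GI50, growth is halved. TGI denotes the concentration required for complete inhibition of growth.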

Columns and labels:
Test in all cases: DTP human tumour cell line panel, 48 h
SN12C renal = system: SN12C renal
UO-31 renal = system: UO-31 renal
OVCAR-4 ovarian = system: OVCAR-4 ovarian
NCI-H23 lung = system: NCI-H23 lung
HCT-15 colon = system: HCT-15 colon
SF-295 CNS = system: SF-295 CNS
UACC-257 melanoma = system: UACC-257 melanoma
SNB-19 CNS = system: SNB-19 CNS
CAKI-1 renal = system: CAKI-1 renal
NCI-H522 lung = system: NCI-H522 lung

SMILES | GI50 (SN12C renal) | TGI (SN12C renal) | GI50 (UO-31 renal) | TGI (UO-31 renal) | GI50 (OVCAR-4 ovarian) | TGI (OVCAR-4 ovarian) | GI50 (NCI-H23 lung) | TGI (NCI-H23 lung) | GI50 (HCT-15 colon) | TGI (HCT-15 colon) | GI50 (SF-295 CNS) | TGI (SF-295 CNS) | GI50 (UACC-257 melanoma) | TGI (UACC-257 melanoma) | GI50 (SNB-19 CNS) | TGI (SNB-19 CNS) | GI50 (CAKI-1 renal) | TGI (CAKI-1 renal) | GI50 (NCI-H522 lung) | TGI (NCI-H522 lung)
CO/N=C(/C)c1cccc(Nc2cc(-c3ccccc3)nc3ccc(OC)cc23)c1 | 2900 nM | 9.67 µM | 15500 nM | > 100 µM | 20.2 µM | 66.6 µM | 6.08 µM | 27.4 µM | 14900 nM | 41.1 µM | 3820 nM | 21.1 µM | 18400 nM | 43.2 µM | 35.2 µM | > 100 µM | 3180 nM | 10.9 µM | 17800 nM | > 100 µM
CCN(CC)CCNC(=O)c1ccc(C)c(OCc2ccccc2)c1[N+](=O)[O-] | – | > 100 µM | – | 50.5 µM | – | > 100 µM | – | > 100 µM | – | 47.4 µM | – | 55.8 µM | – | 36.3 µM | – | > 100 µM | – | > 71.1 µM | – | 76.5 µM
NC(=S)N/N=C/c1cc(-c2cccc(N)c2)ccn1 | 2520 nM | > 100 µM | 907 nM | 8.69 µM | 2.66 µM | > 100 µM | 1.91 µM | > 100 µM | 2710 nM | > 100 µM | 1660 nM | 31 µM | 2150 nM | > 28.6 µM | 4.24 µM | > 100 µM | 972 nM | 10.3 µM | 202 nM | 0.564 µM
O=C(OCC(OC(=O)c1ccccc1)C(OC(=O)c1ccccc1)C(OC(=O)c1ccccc1)c1cnn(-c2ccccc2)n1)c1ccccc1 (stereo not given) | – | > 100 µM | – | > 100 µM | – | > 100 µM | – | > 100 µM | – | > 100 µM | – | > 100 µM | – | > 100 µM | – | > 100 µM | – | > 100 µM | – | > 100 µM
CCOc1ccccc1NC(=O)C(C#N)C1=C(Cl)C(=O)c2ccccc2C1=O (stereo not given) | – | 3.19 µM and 3.53 µM | 1510 nM | 3.1 µM and 2.86 µM | 1.67 µM | 3.42 µM and 3.04 µM | – | 3.99 µM and 6.17 µM | – | 2.94 µM | – | 3.13 µM and 3.19 µM | 2220 nM | 2.25 µM and 6.7 µM | 3.07 µM | 3.6 µM and 10.2 µM | 1810 nM | 5 µM and 3.29 µM | – | 4.22 µM
O=C(O)C12CC3(C(=O)O)CC(C(=O)O)(CC(C(=O)O)(C1)C3=O)C2=O | – | > 100 µM | – | > 100 µM | – | > 100 µM | – | > 100 µM | – | > 100 µM | – | > 100 µM | – | > 100 µM | – | > 100 µM | – | > 100 µM | – | > 100 µM
O=C(NCc1ccc(S(=O)(=O)c2cc(F)cc(F)c2)cc1)c1ccc2nccn2c1 | < 10 nM | > 100 µM | > 44800 nM | > 100 µM | 11.3 µM | > 77.3 µM | > 48.7 µM | > 100 µM | 47.2 nM | > 100 µM | 15800 nM | > 95.3 µM | > 59100 nM | > 100 µM | 2.56 µM | > 100 µM | > 43300 nM | > 100 µM | < 10 nM | 43 µM
S=C1CC(c2ccccc2)Sc2ccc(Cl)cc2N1 (stereo not given) | – | > 100 µM | – | > 100 µM | – | > 100 µM | – | > 100 µM | – | > 100 µM | – | 92.6 µM | – | > 100 µM | – | > 100 µM | – | > 100 µM | – | > 100 µM
COc1ccc2c(c1)C(C)Cc1c(ncnc1-n1cnc3cc(C)ccc31)N2C (stereo not given) | 380 nM | 20.5 µM | 106 nM | 13.1 µM | 0.347 µM | 33.7 µM | 0.4 µM | 23.4 µM | 207 nM | 12.9 µM | 31.7 nM | 11 µM | 158 nM | 20.8 µM | 0.216 µM | 20.4 µM | 60.4 nM | 12.6 µM | 54.4 nM | 0.325 µM
N#CC(C(=O)CCC(=O)Nc1cccc(C(F)(F)F)c1)c1ccc(Cl)cc1 (stereo not given) | – | > 100 µM | – | > 100 µM | – | > 100 µM | – | > 100 µM | – | > 100 µM | – | > 100 µM | – | > 100 µM | – | > 100 µM | – | > 100 µM | – | > 100 µM
Cc1ccc(S(=O)(=O)NC(=O)NC2=NC(C)(C)N(c3ccc(Cl)c(Cl)c3)C(N)=N2)cc1 | – | > 100 µM | – | > 100 µM | – | > 100 µM | – | > 100 µM | – | > 100 µM | – | > 100 µM | – | > 100 µM | – | > 100 µM | – | > 100 µM | – | > 100 µM
COc1ccc(/C=C(/c2ccccc2)[N+](=O)[O-])cc1 | 1360 nM | 2.9 µM | 1130 nM | 2.35 µM | 1.69 µM | 3.15 µM | 1.74 µM | 3.63 µM | 446 nM | 1.86 µM | 2290 nM | 5.22 µM | 1600 nM | 3.4 µM | 1.65 µM | 3.17 µM | 1550 nM | 3.28 µM | 1650 nM | 4.16 µM
COc1ccc2c(Oc3ccc(NC(=O)c4c(C)n(CC(C)(C)O)n(-c5ccccc5)c4=O)nc3)ccnc2c1 | 4940 nM | > 100 µM | 4410 nM | > 100 µM | 10.7 µM | > 90 µM | 18.4 µM | > 100 µM | 6750 nM | > 100 µM | 654 nM | 12.7 µM | 16600 nM | > 100 µM | 46.4 µM | > 100 µM | 3330 nM | > 27.7 µM | 6840 nM | 26.7 µM
C=C1CC[C@@H](C(C)C)C[C@@H]2[C@H]([C@H](O)C[C@]2(C)O)[C@@]2(C)CC[C@@H]1O2 | 11200 nM | 23.3 µM | 17300 nM | 31.1 µM | 14.8 µM | 28 µM | 20.1 µM | 42.7 µM | 14600 nM | 27.7 µM | 14700 nM | 32.3 µM | 16200 nM | 31.3 µM | 19.2 µM | 33.2 µM | 792 nM | 18.7 µM | 15200 nM | 29.8 µM
CC(C)C1=C2CCC3(C)C(CCC4C5C6OCC5(CCC6(C)C)CCC43C)C2(C)CC1 (stereo not given) | – | 29.9 µM | – | 33.8 µM | – | 77.5 µM | – | 54.5 µM | – | 40.7 µM | – | 34.5 µM | – | 36.1 µM | – | 98.6 µM | – | 38.3 µM | – | 36.5 µM
